Measured values: patent US20100112089A1, “PEPTIDE COMPOUND AND USE THEREOF” (Takeda Pharmaceutical Company Limited, priority 2008, published 2010)

What was measured:
NCI-H226 cells [1] = assay: Confocal immunofluorescence analysis of damage foci; format: cell-based; conditions: bleomycin at 0.4 μg/ml alone
Procedure: The cells were fixed in ice-cold methanol at −20° C. for 20 min, and blocked with PBS containing 5% BSA for 45 min. Cells were then incubated with anti-γ-H2AX, anti-ATM p-Ser1981, anti-DNA-PKcs p-Thr2609, anti-NBS1 p-Ser343, or anti-SMC1 p-Ser957 antibodies overnight at 4° C., followed by incubation with Alexa 594-conjugated secondary antibody (Invitrogen, Carlsbad, Calif.) for 1 hr at room temperature in the dark. Cell nuclei were stained using Hoechst 33342. Fluorescence was visualized and analyzed using Becton Dickinson Pathway450. The intensity of the nuclei and number of foci was assessed by ATTOVision and IPLab software (Becton Dickinson), respectively.

NCI-H226 cells [2] = format: cell-based; conditions: bleomycin 2 μg/ml alone
Procedure: The cells were harvested and lysed in a lysis buffer [50 mM Tris-HCl (pH 8.0), 5 mM EDTA (pH 8.0), 100 mM NaCl, 0.5% NP-40, 2 mM DTT, 50 mM NaF, 1 mM Na3VO4, 1 μM microcystin, proteinase inhibitors cocktail (Roche, Mannheim, Germany)] for 30 min on ice and the lysates were clarified by centrifugation at 15,000 rpm for 20 min at 4° C. Protein concentration of the supernatants was evaluated using a detergent-compatible protein assay kit (Bio-Rad, Hercules, Calif.) according to the manufacturer's instructions. Whole cell lysates (60 μg) were run on a 10-12% SDS-PAGE gel, and transferred onto polyvinylidene difluoride (PVDF) membranes (Bio-Rad). The membrane was blocked at room temperature for 1 hr in TBST (0.1% Tween 20 in TBS) containing 2% ECL Advance Blocking Reagent (GE healthcare, Waukesha, Wis.) and incubated with primary antibody overnight at 4° C. The membrane was incubated with anti-peroxidase conjugated secondary antibody (Cell Signaling) for 1 hr at room temperature and analyzed using the enhanced chemiluminescence detection system (ECL Advance Western Blotting Detection Kit, GE healthcare).

[3] = system: NCI-H226 subcutaneous xenograft tumor; assay: Subcutaneous tumor xenograft model; format: in vivo, SCID mice; conditions: cisplatin 9 mg/kg
Procedure: A suspension of NCI-H226 cells was injected subcutaneously into the flanks of six weeks old male severe […] combined immune deficiency (SCID) mice (Charles River Lab., Wilmington, Mass.). The size of tumors was measured three times a week using a caliper. The volumes were calculated using the following formula: volume (cm^3)=[width^2 (mm)×length (mm)]/2000. The relative tumor volume was expressed as the Vt/V0 index, where Vt is the tumor volume on a measured day, and V0 is the volume of the same tumor just before the first treatment. Mean relative tumor sizes with standard error of mean, SEM, were plotted. Body weight was measured three times weekly from the first treatment, and the weight change was expressed as a percentage of the initial weight. Animals were housed in accordance with guidelines from the Association for the Assessment and Accreditation of Laboratory Animal Care International, and the protocols were approved by the institutional animal care committee of CanBas Co., Ltd.
The statistical significance of the differences of the relative tumor volume between groups was determined by Student's t tests.

Molecule | foci formation (γ-H2AX, NBS1 p-Ser343, ATM p-Ser1981, SMC1 p-Ser957) (NCI-H226 cells [1]) | phosphorylation of ATM (Ser1981), H2AX, CHK1 (Ser317), CHK2 (Thr68) (NCI-H226 cells [2]) | tumor growth [3]
bleomycin | only marginally increased foci formation | induced phosphorylation | 
N.N.[Cl][Pt][Cl] [cisplatin] |  |  | suppressed tumor growth
